The test concerns the target T1, TweCA (TweCAδ) (Conticribra weissflogii, UniProt Q5U9J1).
T1 construct: gene ca1; recombinant, obtained in-house as reported earlier
T1 sequence (Q5U9J1 1-281): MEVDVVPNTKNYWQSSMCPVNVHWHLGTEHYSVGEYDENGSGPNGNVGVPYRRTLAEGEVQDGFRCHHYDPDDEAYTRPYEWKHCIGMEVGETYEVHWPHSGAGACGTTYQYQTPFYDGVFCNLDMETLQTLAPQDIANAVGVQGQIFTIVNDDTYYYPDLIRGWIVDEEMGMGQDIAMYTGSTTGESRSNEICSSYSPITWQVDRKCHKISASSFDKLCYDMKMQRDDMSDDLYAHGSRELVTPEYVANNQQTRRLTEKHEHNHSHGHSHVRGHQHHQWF
In words: stopped-flow CO2 hydration assay. The format is biochemical.
Regarding `Oc1ccccc1` [compound 1, phenol (R = H)], the affinity, expressed as Ki, was 52.3 µM. For `Oc1ccccc1O` [compound 2, R = 2-OH] the value was 4.5 µM.

Molecule `Oc1cccc(O)c1` [compound 3, R = 3-OH] registered a Ki of 48.2 µM. For the molecule `Oc1ccc(O)cc1` [compound 4, R = 4-OH], the affinity corresponds to a Ki of 34.9 µM.

In the case of `Oc1ccc(O)c(O)c1` [compound 5, R = 2,4-diOH], affinity was put at a Ki of 2 µM. Molecule `Nc1cccc(O)c1` [compound 6, R = 3-NH2] gave a Ki of 65.4 µM.

As for `Nc1ccc(O)cc1` [compound 7, R = 4-NH2], the affinity, expressed as Ki, was 17.6 µM. With `CC(=O)Nc1ccc(O)cc1` [compound 8, R = 4-NHCOCH3] the figure was 7.9 µM. For `N#Cc1ccc(O)cc1` [compound 9, R = 4-CN] the value was 56.9 µM; for `O=C(O)c1ccccc1O` [compound 10, R = 2-COOH], 0.95 µM.

Turning to `O=C(O)c1ccc(O)cc1` [compound 11, R = 4-COOH], the Ki is 1.4 µM.

`OCc1ccc(O)cc1` [compound 12, R = 4-CH2OH]: the Ki was 35.9 µM. For `Nc1cc(O)ccc1Cl` [compound 13, R = 3-NH2-4-Cl] the value was over 100 µM; for `Nc1ccc(O)c(Cl)c1` [compound 14, R = 4-NH2-2-Cl], over 100 µM; for `Oc1cc(F)ccc1F` [compound 15, R = 2,5-diF], 30.7 µM. For `Oc1cc(F)cc(F)c1` [compound 16, R = 3,5-diF] the value was 21 µM; for `Oc1c(F)cc(F)cc1F` [compound 17, R = 2,4,6-triF], 13.8 µM. With `O=C(O)c1ccc(O)c(O)c1` [compound 18, R = 4-COOH-2-OH] the figure was 4.9 µM; with `O=C(O)c1c(O)cccc1O` [compound 19, R = 2-COOH-3-OH], 2.7 µM; with `O=C(O)c1cc(O)ccc1O` [compound 20, R = 2-COOH-4-OH], 0.81 µM. `O=C(O)/C=C/c1ccc(O)cc1` [compound 21, R = 4-(CHCHCOOH)] came in with a Ki of 14.5 µM. For `O=C(O)/C=C/c1ccc(O)c(O)c1` [compound 22, R = 2-OH-4-(CHCHCOOH)] the value was 5.9 µM.

For the origin of these results see paper PMC6968676, “Inhibition survey with phenolic compounds against the δ- and η-class carbonic anhydrases from the marine diatom thalassiosira weissflogii and protozoan Plasmodium falciparum” (Journal of Enzyme Inhibition and Medicinal Chemistry, 2019).
